Assay [1] relates to Lin28a-positive IGROV-1 cells. The assay can be described thus: Cell proliferation (Incucyte), IGROV-1 cells. It is filed as cell-based.
For assay [2], the target named is T1, Lin28b ZKD (Homo sapiens, UniProt Q6ZN17).
T1 sequence (Q6ZN17 127-166 limits assumed): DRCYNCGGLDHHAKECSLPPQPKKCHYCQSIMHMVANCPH
Briefly: 1H-15N HSQC NMR of Lin28b-ZKD with ligand. It is filed as binding. The settings on record: ligand added in 20:1 molar ratio. From the text: Given that Ln268 is derived from the parent compound Ln15, we wanted to assess whether the improved properties of Ln268 were linked to a potential difference in its interaction with Lin28 ZKD. To this end, we collected ^1H-^15N HSQC spectra of Lin28b-ZKD, Lin28b-ZKD + Ln15, and Lin28b-ZKD + Ln268. RNA binding proteins (RBPs) commonly have binding pockets that are intrinsically disordered, as evidenced by the narrow chemical shift dispersion observed in the HQSC of Lin28b-ZKD alone (Fig. 3D). Addition of either Ln15 or Ln268 led to changes in the chemical shifts of ca. 20 residues, consistent with the change in conformation of the Lin28b-ZKD segment which encompasses residues 137–160 (three of which are prolines) upon RNA binding (Fig. 3E). Although many of the peak shifts are the same for the Ln15 and Ln268 containing samples, there are around 7 resonances where the peaks disappear in the case of Ln268.
NMR spectra were recorded at 5 °C on a Bruker Avance III 850 MHz spectrometer, equipped with a TCI cryoprobe. ^1H-^15N HSQC experiments were recorded on ^13C/^15N-labeled Lin28b ZKD (230 μM), in 20 mM d-Tris-HCl (pH 7.5), 100 mM NaCl, 1 mM d-DTT, 0.02% NaN3, 0.25 mM ZnCl2 + 1 mM IDA, and 10% D2O, to which unlabeled Ln15 and Ln268 was added, respectively. The time domain matrix was 4k by 512. Four scans were acquired per t1 increment. Spectra were processed and plotted using Topspin to a final size of 8k by 1k. For the overlays, the levels were set to the same base level in all cases, with a multiplication factor of 1.1.

The next assay has as its system DuNE cells. Briefly: Colony formation assay, DuNE cells. It is filed as cell-based. The settings on record: 14 days, vs vehicle (~50 colonies). From the text: CSCs have characteristic tumorigenic, self-renewal, and differentiation properties. The self-renewal ability is hijacked by CSCs that makes them both tumorigenic and capable of sustaining long-term tumor growth, which can be evaluated by 3D spheroid and colony formation assays. We established a DuNE spheroid model in which DuNE cells formed 3D spheroids in 96-well plates (Figure S3). By integrating this 3D culture with the Incucyte live-cell imaging system, we quantified the sizes of the spheroid growth over 0–6 days to generate a spheroid growth curve. Using this model system, we treated the DuNE spheroids with increasing doses (0–100 μM) of C1632, Ln15, and Ln268 for 0–6 days. […] In addition, classic colony formation assays were used to measure the stemness in the DuNE model. Colony formation counts, which were ~50 under vehicle treatment after 14 days, decreased by 22% in C1632-treated plates, and by 75% and 96% in the Ln15 and Ln268 treated plates, respectively (Fig. 4D).
In the colony formation assays, cancer cells were seeded in 0.7% soft agar in a 6-well plate, with a 1% soft agar bottom base coating. Cells were allowed to grow for 14 days to form colonies. Colonies were stained with crystal violet and imaged by stitching 5X field images together to capture the entire well (Zeiss light microscope [Carl Zeiss]). Colony numbers were counted according to their diameters (100-300um or >300um). Three independent biological replicates were performed for all the assays.

The test system of assay [3] is Du145 (Lin28b-negative line). The assay can be described thus: Cell proliferation (Incucyte), Du145 cells. It is filed as cell-based. The source says:
(§1) To further evaluate whether the suppressive effects of Ln268 are specific to Lin28-positive cancer cells, we compared cell growth rates of DuNE (Lin28b-positive line) and Du145 (Lin28b-negative line), both of which are Lin28a-negative. DuNE has the same genomic background with Du145 except for the transduction of the SRRM4 gene. […] Furthermore, Ln268 had no impact on the cell growth of DuNE(KO) cells, in which the Lin28b gene was knocked out by CRISPR (Fig. 5C). […] We also tested several ovarian and endometrial cancer cell lines with different Lin28a and Lin28b expression profiles (Fig. 5E).

The subject of the next assay is TOV-112D cells. The assay can be described thus: Cell proliferation (Incucyte), TOV-112D. It is filed as cell-based. The settings on record: Lin28a/Lin28b-positive.
Text: as §1

Another assay deals with HEC1B cells. Briefly: Cell proliferation (Incucyte), HEC1B. In kind it is cell-based. The settings on record: Lin28a/Lin28b-negative.
Text: as §1

Another assay concerns ANA3CA cells. Briefly: Cell proliferation (Incucyte), ANA3CA. In kind it is cell-based. The settings on record: Lin28a/Lin28b-positive.
Text: as §1

Assay [4] deals with T1, Lin28b ZKD. Briefly: EMSA, Lin28b ZKD:pre-let-7d complex formation. It is filed as binding. Conditions: 1 μM Lin28 ZKD, 10 nM IRDye800-labeled pre-let-7d probe. As for the experimental part: We next validated the newly developed compounds using EMSA, a non-florescent-based assay to detect Lin28b ZKD:pre-let-7 complex formation. Similar to the FP assays, we first optimized the experimental conditions by titrating: (1) IRDye800-labeled pre-let-7d RNA probe, (2) Lin28b ZKD protein, and (3) non-labeled pre-let-7 probe as a competitor (Fig. 2C). For the validation experiments, 1 μM Lin28 ZKD and 10 nM of IRDye800-labeled pre-let-7d probe were mixed with each candidate compound. Compounds C1632 and Ln15 were used as control Lin28 inhibitors, respectively. […] Regardless, we use these two biochemical assays to shortlist the most promising compounds for further characterization. […] While our inhibitors directly target the Lin28 ZKD, it is unclear whether C1632 may bind to domains other than the ZKD or allosterically disrupt Lin28’s capacity to bind its RNA substrates.
EMSA followed the standard protocols we published. An IRDye800CWN-labeled pre-Let-7d RNA probe (5’-IRD800CWN-[…]-3’) was purchased from IDT (Coralville, IA, USA). Lin28a or Lin28b proteins were incubated with 300 nM of probe in a standard 20 uL EMSA reaction in a reaction buffer containing 20 mM HEPES-NaOH, pH 7.4, 2 mM DTT, 3 mM MgCl2, 0.05% NP-40, protease inhibitors, and 0.1 ug poly[dI:dC]. After incubation for 30 min at 37 °C, reactions were loaded onto 4% non-denatured polyacrylamide gel in 0.5× TBE buffer. The RNA oligo bands were visualized by using the Li-Cor Odyssey 9120 Infrared Imaging System.

The record followed here is publication PMC11725581, “Developing novel Lin28 inhibitors by computer aided drug design” (Cell Death Discovery, 2025).

“Also recorded” adds a separate entry of the source.

As to `O=c1[nH]c(Nc2ccc(F)cc2O)cs1` [Ln268], the “cell proliferation, IGROV-1” value in assay [1] was “strongly inhibited cell proliferation; also recorded: strong suppressive effects”. At Lin28b ZKD [2], the “residues of Lin28b-ZKD with changed chemical shifts (1H-15N HSQC)” value is “ca. 20 residues” and the “resonances of Lin28b-ZKD whose peaks disappear (1H-15N HSQC)” value is “around 7 resonances”. For the same molecule, in the assay on DuNE cells, the “decrease of colony formation counts” value turned out to be 96%. Further, the “effect on Du145 cell growth and cell morphology” value in assay [3] is on record as “no impact”. In the assay on TOV-112D cells, the “effect on growth of TOV-112D cells” value was “suppressed the growth”. For the same molecule, in the assay with HEC1B cells, the “effect on growth of HEC1B cells” value is listed as “no or minimal impacts”. The “effect on growth of ANA3CA cells” value in the assay on ANA3CA cells is recorded as “suppressed the growth”. Besides, the “inhibition of Lin28b ZKD:pre-let-7d complex formation (EMSA)” value at Lin28b ZKD [4] is on record as “capable of inhibiting Lin28:pre-let-7d complex formation in a dose-dependent manner”.
